How the values were obtained:
Kibdelosporangium aridum = test: Susceptibility of K. aridum to antibiotics, disk diffusion; type: cell-based; settings: 28° C., one week
Experimental: Susceptibility of K. aridum to antibiotics was examined by placing BBL susceptibility disks on nutrient agar plates seeded with K. aridum as an overlay. Diameters of the zones of inhibition were measured after incubation for one week at 28° C.
Susceptibility to Antibiotics. […] Chlortetracycline ([…]) produced 18 mm zones of inhibition; tetracycline (5 μg) 11-12 mm zones; rifampin (5 μg) 11-15 mm zones; novobiocin (5 μg) 27-28 mm zones. All zones of inhibition contained at least a few resistant colonies.

[1] = test system: rumen fluid from dairy cows; test: Rumen in vitro experiment with dairy cow rumen fluid; settings: about 23 hours
Experimental: A similar experiment was carried out using rumen fluid from dairy cows fed a typical dairy cow diet of two parts corn silage and three parts dairy concentrate. Specifically, strained rumen fluid (10 ml) was obtained, from an animal fed two hours earlier, via cannula and was mixed with 10 ml of a nutrient broth comprising a 2:3 mix of corn silage and dairy concentrate. After adding a selected growth promotant, the mixture was incubated at 39° C. for about 23 hours, with oscillation.

CCC[C@@H]1C[C@@H](C(=O)N[C@@H]([C@H]2O[C@H](SC)[C@H](O)[C@@H](O)[C@H]2O)[C@H](C)Cl)N(C)C1 [clindamycin]
Susceptibility of K. aridum (Kibdelosporangium aridum; disk 2 μg): resistant

Saloinomycin
% PR ([1]; 0.5 ppm): 126% OF CONTROL | ACE ([1]; 0.5 ppm): 95% OF CONTROL | AMO ([1]; 0.5 ppm): 117% OF CONTROL | BUT ([1]; 0.5 ppm): 83% OF CONTROL | DLAC ([1]; 0.5 ppm): 0% OF CONTROL | ETOH ([1]; 0.5 ppm): 0% OF CONTROL | GLU ([1]; 0.5 ppm): 0% OF CONTROL | IBU ([1]; 0.5 ppm): 153% OF CONTROL | IVA ([1]; 0.5 ppm): 110% OF CONTROL | LLAC ([1]; 0.5 ppm): 0% OF CONTROL | LYS ([1]; 0.5 ppm): 119% OF CONTROL | NH--N ([1]; 0.5 ppm): 136% OF CONTROL | PRO ([1]; 0.5 ppm): 124% OF CONTROL | TOTAL ([1]; 0.5 ppm): 99% OF CONTROL | VAL ([1]; 0.5 ppm): 94% OF CONTROL | % PR ([1]; 5 ppm): 152% OF CONTROL | ACE ([1]; 5 ppm): 99% OF CONTROL | AMO ([1]; 5 ppm): 226% OF CONTROL | BUT ([1]; 5 ppm): 66% OF CONTROL | DLAC ([1]; 5 ppm): 0% OF CONTROL | ETOH ([1]; 5 ppm): 0% OF CONTROL | GLU ([1]; 5 ppm): 0% OF CONTROL | IBU ([1]; 5 ppm): 108% OF CONTROL | IVA ([1]; 5 ppm): 75% OF CONTROL | LLAC ([1]; 5 ppm): 0% OF CONTROL | LYS ([1]; 5 ppm): 117% OF CONTROL | NH--N ([1]; 5 ppm): 116% OF CONTROL | PRO ([1]; 5 ppm): 148% OF CONTROL | TOTAL ([1]; 5 ppm): 98% OF CONTROL | VAL ([1]; 5 ppm): 83% OF CONTROL | % PR ([1]; 50 ppm): 188% OF CONTROL | ACE ([1]; 50 ppm): 76% OF CONTROL | AMO ([1]; 50 ppm): 268% OF CONTROL | BUT ([1]; 50 ppm): 63% OF CONTROL | DLAC ([1]; 50 ppm): 0% OF CONTROL | ETOH ([1]; 50 ppm): 0% OF CONTROL | GLU ([1]; 50 ppm): 0% OF CONTROL | IBU ([1]; 50 ppm): 61% OF CONTROL | IVA ([1]; 50 ppm): 46% OF CONTROL | LLAC ([1]; 50 ppm): 0% OF CONTROL | LYS ([1]; 50 ppm): 114% OF CONTROL | NH--N ([1]; 50 ppm): 82% OF CONTROL | PRO ([1]; 50 ppm): 168% OF CONTROL | TOTAL ([1]; 50 ppm): 89% OF CONTROL | VAL ([1]; 50 ppm): 60% OF CONTROL

CCC[C@@H]1C[C@@H](C(=O)N[C@@H]([C@H]2O[C@H](SC)[C@H](O)[C@@H](O)[C@H]2O)[C@@H](C)O)N(C)C1 [lincomycin]
Susceptibility of K. aridum (Kibdelosporangium aridum; disk 2 μg): resistant

NC[C@H]1O[C@H](O[C@H]2[C@H](O)[C@@H](O[C@H]3O[C@H](CO)[C@@H](O)[C@H](N)[C@H]3O)[C@H](N)C[C@@H]2N)[C@H](N)C[C@@H]1O [tobramycin]
Susceptibility of K. aridum (Kibdelosporangium aridum; disk 10 μg): resistant
